The subject of data set [1] is C. albicans. Briefly: Horse serum-induced germ tube formation (germination) of C. albicans. It counts as cell-based. The conditions noted are these: 10^−6M, 60 minutes at 37° C. after horse serum induction. Here is the method: C. albicans from stationary phase cultures were washed twice with distilled water and suspended in HBSS to a final concentration of 2×10^6/ml. Hyphal growth was induced by addition of 10% inactivated horse serum (GIBCO/BRL, Great Britain) to yeast incubated for 45 minutes at 37° C. with continuous shaking. Horse serum was removed by washing cells twice with HBSS and incubation was continued for 60 minutes at 37° C. in the presence of α-MSH(1-13) (SEQ ID NO: 3), (6-13) (SEQ ID NO: 2) or (11-13) (SEQ ID NO: 1) at a concentration of 10^−6M with continuous shaking. The percentage of filamentous cells was evaluated under a light microscope with the aid of hemocytometer. Experiments were run in triplicate and at least 200 cells were scored. Photomicrographs were taken with a MC100 camera attached to an Axioskop Zeiss microscope.

Data set [2] relates to inflammation induced in the ear by picryl chloride application. As to the kind of experiment: Picryl chloride-induced ear swelling. It is filed as in vivo, BALB/C mice. The conditions noted are these: for % Inhibition 3 h: 3 h after picryl chloride; for % Inhibition 6 h: 6 h after picryl chloride. Here is the method: Hiltz, M. E., Catania, A., Lipton, J. M., Anti-Inflammatory Activity of aα-MSH (11-13) Analogs: Influence of Alteration in Stereochemistry, 12 Peptides 767 (1981). […] Female BALB/C mice (Simonsen Laboratories), 7 weeks old, were housed at 23-25° C. in groups of no more than 5 per cage [28 cm (L)×18 cm (W)×13 cm (H)]. They were allowed to acclimatize to standard lighting and temperature conditions for at least 1 week, with food and water available ad lib, before the experiment began. Five to ten animals were randomly assigned to each treatment group each test day, and all experiments were repeated at least twice to confirm reproducibility. To reduce error due to slight differences in responses to the irritant of animals from different shipments, tests of each agent were performed as separate experiments in which experimental and control animals were drawn from the same shipment.
In the experiments each animal was anesthetized with 1 mg of pentobarbital sodium solution ([…], Nembutal, Abbott Laboratories, Abbott park, Ill.). Baseline ear thickness was measured for both ears with a spring-loaded micrometer (Swiss Precision Instruments, Los Angeles, Calif.). Ear thickness was expressed in units of 10^−3 cm; the average thickness of unstimulated ears was approximately 25-30×10^−3 cm. After baseline measurements were taken, one of six solutions was injected IP. […] The doses of the tripeptides were 10 μg (2.6×.10^−8 M), 20 μg (5.2×.10^−8 M), 40 μg (1.04×.10^−7 M), and 80 μg (2.08×.10^−7 M). Immediately after saline or α-MSH injection, a micropipette was used to coat both sides of each ear with 10 μl […] of a 0.5% picryl chloride (Polysciences, Warrington, Pa.) solution in acetone.
Ear thickness was remeasured 3 and 6 h after picryl chloride application. Swelling was determined by subtracting baseline thickness from the measurements for each ear at 3 and 6 h. The differences for both ears were then averaged for the final analysis.
Repeated-measure ANOVA techniques were used to determine if there was an overall difference among group data for each peptide tested in separate experiments. In those cases in which the ANOVA yielded significant results, Dunnett's test was then used to compare the effects of peptide doses with control (saline) data for each of the two time periods, 3 and 6 h.

Data set [3] has as its system edema caused by intradermal injection of recombinant human IL-1β in the mouse ear. Briefly: IL-1β-induced ear edema with centrally administered α-MSH and receptor antagonists. As to conditions: α-MSH(1-13) given centrally with propranolol injected centrally. It is filed as in vivo, BALB/c mice. The protocol:
See Macaluso, A., McCoy, D., Ceriani, G., Watanabe, T., Biltz, J., Catania, A., and Lipton, J. M., Anti-inflammatory Influences of a-MSH Molecules: Central Neurogenic and Peripheral Actions, 14(4), J. of Neuroscience 2377-2382 (1994). Female BALB/c mice (Simonsen Laboratories, Gilroy, Calif.), 7-8 weeks old, were housed at 23-25° C. in groups not exceeding five animals per cage [28 cm (L)×18 cm (W)×13 cm (H)]. Before the experiments they were acclimatized for not less than 1 week before experimentation to standard lighting and temperature conditions with food and water freely available.
Mice were anesthetized with 10% pentobarbital sodium solution (1 mg/mouse, 50 mg/ml, Nembutal sodium solution; Abbott Laboratories, North Chicago, Ill.). Baseline ear thickness measurements were taken with a spring-loaded micrometer (Swiss Precision Instruments, Los Angeles, Calif.). Ear thickness was expressed in centimeters and was measured at least twice at each time point. The average thickness of unstimulated ears was […]. Inflammation was induced by injecting 20 μl of recombinant human IL-1β (1500 U; Genzyme, Cambridge, Mass.) directly into the skin (intradermally) of one ear of each mouse using a 28 gauge needle (Hiltz et al., 1992). Measures of ear thickness were repeated 4 and 6 hr later, while the mice were under sodium pentobarbital anesthesia.
Several agents were administered at the time of ear challenge to pharmacologically block certain receptors: atropine (Sigma Chemical Co.; 150 μg i.p.), a muscarinic receptor blocker that acts on autonomic end-organ receptors, was chosen because of links between inflammation and modulation of pain and the finding that muscarinic antagonists increase pain threshold (Hartvig et al., 1989); phentolamine (Sigma; 150 μg i.p.) an agent that competes for occupancy of α-adrenergic receptors; propranolol (Sigma; 150 μg, i.p.; 30 μg, i.c.v.), a nonspecific competitive antagonist for β-adrenergic receptors.
Because of the size of the experiments and the requirement for several shipments of animals over time, several experiments were performed, each with complete treatment and control groups drawn from the same shipment of mice. Omnibus analysis of variance techniques (Dynastat, Washington, D.C.) were used to test overall differences among group means. Tukey's protected t test was used to compare individual means. Probability values of <0.05 were considered significant.

For data set [4] the following is noted: Lipton and Catania, Immunol. Today 1997; cited from earlier work.

On to Ac-Lys-Pro-Val-NH2 [α-MSH(11-13)], for which the entries for the “reduction in the number of filamentous cells / inhibition of germ tube formation” value in data set [1] and in data set [1] (listed as tripeptide) were “approximately 56%” and 54-58%, respectively. Further, the “% Inhibition 3 h” value was found to be 26% in data set [2] (10 μg IP), 21% in data set [2] (20 μg IP), 33% in data set [2] (40 μg IP) and 50% in data set [2] (80 μg IP). The “% Inhibition 6 h” value in data set [2] (10 μg IP) is 25%; in data set [2] (20 μg IP), 19%; in data set [2] (40 μg IP) it was 26%; in data set [2] (80 μg IP), 42%. The “overall effect on inflammation (ANOVA)” value in data set [2] (10-80 μg IP, 3 and 6 h) was “inhibited acute inflammation”.
For SYSMEHFRWGKPV [α-MSH(1-13)], the entries for the “inhibition of ear edema by α-MSH” value in data set [3] (4 hr) and in data set [3] (6 hr) were 36% and 32%, respectively. Also, in data set [4], the toxicity result is “very low toxicity”.

These data come from US7115574B2, “System and method for support legacy operating system booting in a legacy-free system” (priority 2001, dated 2006).
